Experimental findings from ChEMBL document CHEMBL1138944, “3-Substituted gem-cyclohexane sulfone based gamma-secretase inhibitors for Alzheimer's disease: conformational analysis and biological activity” (Bioorg Med Chem Lett, 2006) are described below.

Each structure is given as a SMILES string.

For this test, the target named is Gamma-secretase. Description: Inhibition of gamma secretase expressed in SH-SY5Y cells. Format: cell-based, Homo sapiens.
In general, IC50 refers to the concentration that inhibits the measured activity by half. Low values mean greater potency, high ones weaker potency. The molecule `O=S(=O)(c1ccc(Cl)cc1)[C@@]1(c2cc(F)ccc2F)CCC[C@@H](CCCO)C1` (relative stereo) returned an IC50 of 8 nM.

The molecule `O=S(=O)(c1ccc(Cl)cc1)[C@@]1(c2cc(F)ccc2F)CCC[C@H](CCCO)C1` (relative stereo) gave an IC50 of 112 nM.

Regarding `COC(=O)CCC[C@]1(C)CCC[C@](c2cc(F)ccc2F)(S(=O)(=O)c2ccc(Cl)cc2)C1` (relative stereo), the IC50 was 10 nM.

Regarding `COC(=O)/C=C/C[C@H]1CCC[C@](c2cc(F)ccc2F)(S(=O)(=O)c2ccc(Cl)cc2)C1` (relative stereo), the IC50 is 210 nM.

In turn, `COC(=O)/C=C/C[C@@H]1CCC[C@](c2cc(F)ccc2F)(S(=O)(=O)c2ccc(Cl)cc2)C1` (relative stereo) had an IC50 of 10 nM.

`COC(=O)CCC[C@@H]1CCC[C@](c2cc(F)ccc2F)(S(=O)(=O)c2ccc(Cl)cc2)C1` (relative stereo) gave a concentration for half-maximal inhibition (IC50) of 3 nM.

In the case of `O=C[C@H]1CCC[C@](c2cc(F)ccc2F)(S(=O)(=O)c2ccc(Cl)cc2)C1` (relative stereo), the IC50 came to 55 nM.

On to `C=CC[C@@H]1CCC[C@](c2cc(F)ccc2F)(S(=O)(=O)c2ccc(Cl)cc2)C1` (relative stereo), for which the IC50 came to 44 nM.

For `C=CC[C@H]1CCC[C@](c2cc(F)ccc2F)(S(=O)(=O)c2ccc(Cl)cc2)C1`, inhibition was half-maximal at 85 nM (IC50).

For the molecule `O=C(O)CC[C@H]1CCC[C@](c2cc(F)ccc2F)(S(=O)(=O)c2ccc(Cl)cc2)C1` (relative stereo), the IC50 was 380 nM.

Molecule `COC(=O)CCC[C@H]1CCC[C@](c2cc(F)ccc2F)(S(=O)(=O)c2ccc(Cl)cc2)C1` (relative stereo) registered an IC50 of 376 nM.

In the case of `COC(=O)CCC[C@@]1(C)CCC[C@](c2cc(F)ccc2F)(S(=O)(=O)c2ccc(Cl)cc2)C1` (relative stereo), half-maximal inhibition (IC50) was put at 1630 nM.

The molecule `O=C(O)CC[C@@H]1CCC[C@](c2cc(F)ccc2F)(S(=O)(=O)c2ccc(Cl)cc2)C1` (relative stereo) showed a half-maximal inhibitory concentration (IC50) of 24 nM.

Molecule `O=C[C@@H]1CCC[C@](c2cc(F)ccc2F)(S(=O)(=O)c2ccc(Cl)cc2)C1` (relative stereo) yielded a half-inhibitory concentration (IC50) of 77 nM.
